Values of other authors, collected in patent US20060084635A1, “Aspirin and vitamin and/or trace element compositions for the amelioration and treatment of vascular disease” (priority 1993, published 2006).
“Also recorded” adds a separate entry of the source. Where two headings read alike, the source gives them in different places. Values belong to the compound of their own block, whether it stands above or below them.

What was measured:
vascular tissue = tested on: vascular tissue; parameters: key: + Beneficial; 0 No Effect; − Detrimental
[1] = tested on: prostaglandins in the vascular wall and platelets
[2] = tested on: serum cholesterol and triglycerides; conditions: for blood serum levels of cholesterol and triglycerides: in vivo
[3] = in sufficient amounts
[4] = tested on: vascular lesions in branches of the aorta and cerebral arteries; conditions: rats; diet containing seven times the level of zinc required for normal growth
[5] = tested on: vascular wall wound healing; conditions: rat, in vivo
[6] = tested on: immune-triggered endothelial damage
atherosclerotic lesions = conditions: animals fed an atherogenic diet
[7] = tested on: retirement community residents; conditions: for All Deaths RR / Ischemic Heart Disease RR / Myocardial Infarction RR / Other Heart Disease RR / Stroke RR / Total Cardiovascular Deaths RR: relative risk vs Aspirin− Vitamin−

Compound: CC(=O)Oc1ccccc1C(=O)O [Aspirin, aspirin]
Anti-Aggregant (vascular tissue; Table 1): +
Decreased Formation of Clots (vascular tissue; Table 1): +
Decreased Immune-Induced Lesions (vascular tissue; Table 1): 0
Decreased Peroxidation (vascular tissue; Table 1): 0
Decreases Serum Cholesterol (vascular tissue; Table 1): 0
Inhibition of Cholesterol Migration (vascular tissue; Table 1): +
Platelet Activity (vascular tissue; Table 1): −
Prostaglandin Synthesis (vascular tissue; Table 1): −
Speeding of Wound Healing (vascular tissue; Table 1): −
platelet prostaglandin function [1]: irreversibly block platelet prostaglandin function
prostaglandin activity in the vascular wall [1]: reversibly decreases prostaglandin activity in the vascular wall
tendency of blood clot formation (platelets; through platelet activity): reduces the tendency of blood clot formation

Compound: [Cr] [Chromium]
Anti-Aggregant (vascular tissue; Table 2): 0
Decreased Formation of Clots (vascular tissue; Table 2): 0
Decreased Immune-Induced Lesions (vascular tissue; Table 2): 0
Decreased Peroxidation (vascular tissue; Table 2): 0
Decreases Serum Cholesterol (vascular tissue; Table 2): +
Inhibition of Cholesterol Migration (vascular tissue; Table 2): 0
Platelet Activity (vascular tissue; Table 2): 0
Prostaglandin Synthesis (vascular tissue; Table 2): 0
Speeding of Wound Healing (vascular tissue; Table 2): 0

Compound: [Cu] [Copper]
Anti-Aggregant (vascular tissue; Table 2): 0
Decreased Formation of Clots (vascular tissue; Table 2): 0
Decreased Immune-Induced Lesions (vascular tissue; Table 2): +
Decreased Peroxidation (vascular tissue; Table 2): 0
Decreases Serum Cholesterol (vascular tissue; Table 2): +
Inhibition of Cholesterol Migration (vascular tissue; Table 2): 0
Platelet Activity (vascular tissue; Table 2): 0
Prostaglandin Synthesis (vascular tissue; Table 2): 0
Speeding of Wound Healing (vascular tissue; Table 2): +

Compound: [Mg+2] [Magnesium]
Anti-Aggregant (vascular tissue; Table 2): 0
Decreased Formation of Clots (vascular tissue; Table 2): 0
Decreased Immune-Induced Lesions (vascular tissue; Table 2): 0
Decreased Peroxidation (vascular tissue; Table 2): 0
Decreases Serum Cholesterol (vascular tissue; Table 2): +
Inhibition of Cholesterol Migration (vascular tissue; Table 2): 0
Platelet Activity (vascular tissue; Table 2): +
Prostaglandin Synthesis (vascular tissue; Table 2): 0
Speeding of Wound Healing (vascular tissue; Table 2): +

undesirable effects of supplements [3]: skin flush and dizziness
Compound: O=C(O)c1cccnc1 [Niacin, Niacin (nictotinic acid)]
Anti-Aggregant (vascular tissue; Table 1): 0
Decreased Formation of Clots (vascular tissue; Table 1): 0
Decreased Immune-Induced Lesions (vascular tissue; Table 1): 0
Decreased Peroxidation (vascular tissue; Table 1): 0
Decreases Serum Cholesterol (vascular tissue; Table 1): +
Inhibition of Cholesterol Migration (vascular tissue; Table 1): 0
Platelet Activity (vascular tissue; Table 1): 0
Prostaglandin Synthesis (vascular tissue; Table 1): +
Speeding of Wound Healing (vascular tissue; Table 1): 0
blood serum levels of cholesterol and triglycerides [2]: reduce the blood serum levels of cholesterol and triglycerides
blood serum levels of cholesterol and triglycerides ([2]; listed as niacin): reduced

Compound: [Se] [Selenium]
Anti-Aggregant (vascular tissue; Table 2): +
Decreased Formation of Clots (vascular tissue; Table 2): 0
Decreased Immune-Induced Lesions (vascular tissue; Table 2): +
Decreased Peroxidation (vascular tissue; Table 2): +
Decreases Serum Cholesterol (vascular tissue; Table 2): +
Inhibition of Cholesterol Migration (vascular tissue; Table 2): 0
Platelet Activity (vascular tissue; Table 2): +
Prostaglandin Synthesis (vascular tissue; Table 2): +
Speeding of Wound Healing (vascular tissue; Table 2): 0

Compound: Cc1ncc(CO)c(CO)c1O.Cl [Vitamin B6]
Anti-Aggregant (vascular tissue; Table 1): 0
Decreased Formation of Clots (vascular tissue; Table 1): 0
Decreased Immune-Induced Lesions (vascular tissue; Table 1): 0
Decreased Peroxidation (vascular tissue; Table 1): 0
Decreases Serum Cholesterol (vascular tissue; Table 1): +
Inhibition of Cholesterol Migration (vascular tissue; Table 1): 0
Platelet Activity (vascular tissue; Table 1): 0
Prostaglandin Synthesis (vascular tissue; Table 1): 0
Speeding of Wound Healing (vascular tissue; Table 1): 0

Compound: O=C1O[C@H]([C@@H](O)CO)C(O)=C1O [Vitamin C]
Anti-Aggregant (vascular tissue; Table 1): 0
Decreased Formation of Clots (vascular tissue; Table 1): 0
Decreased Immune-Induced Lesions (vascular tissue; Table 1): 0
Decreased Peroxidation (vascular tissue; Table 1): 0
Decreases Serum Cholesterol (vascular tissue; Table 1): +
Inhibition of Cholesterol Migration (vascular tissue; Table 1): 0
Platelet Activity (vascular tissue; Table 1): 0
Prostaglandin Synthesis (vascular tissue; Table 1): +
Speeding of Wound Healing (vascular tissue; Table 1): 0
prostaglandin activity in the vascular wall [1]: increases the level of activity of prostaglandins in the vascular wall
prostaglandin activity in the vascular wall ([1]; listed as vitamin C): increased

Compound: [Zn] [Zinc]
Anti-Aggregant (vascular tissue; Table 2): 0
Decreased Formation of Clots (vascular tissue; Table 2): 0
Decreased Immune-Induced Lesions (vascular tissue; Table 2): 0
Decreased Peroxidation (vascular tissue; Table 2): 0
Decreases Serum Cholesterol (vascular tissue; Table 2): +
Inhibition of Cholesterol Migration (vascular tissue; Table 2): 0
Platelet Activity (vascular tissue; Table 2): 0
Prostaglandin Synthesis (vascular tissue; Table 2): 0
Speeding of Wound Healing (vascular tissue; Table 2): 0
incidence and severity of vascular lesions / atherosclerosis [4]: reduced incidence of atherosclerosis in rats; also recorded: greatly reduced

serum cholesterol levels ([2]; at higher doses): net increase in serum cholesterol levels
Compound: Vitamin A
Anti-Aggregant (vascular tissue; Table 1): +
Decreased Formation of Clots (vascular tissue; Table 1): 0
Decreased Immune-Induced Lesions (vascular tissue; Table 1): 0
Decreased Peroxidation (vascular tissue; Table 1): 0
Decreases Serum Cholesterol (vascular tissue; Table 1): −
Inhibition of Cholesterol Migration (vascular tissue; Table 1): 0
Platelet Activity (vascular tissue; Table 1): 0
Prostaglandin Synthesis (vascular tissue; Table 1): 0
Speeding of Wound Healing (vascular tissue; Table 1): +
vascular wall wound healing / arterial healing [5]: improve arterial healing; also recorded: speeds vascular wall wound healing
immune-triggered endothelial damage / immune-induced lesions [6]: preventative effect on immune-induced lesions
anti-aggregant activity (platelets): mild anti-aggregant activity

Compound: Vitamin E
Anti-Aggregant (vascular tissue; Table 1): +
Decreased Formation of Clots (vascular tissue; Table 1): 0
Decreased Immune-Induced Lesions (vascular tissue; Table 1): +
Decreased Peroxidation (vascular tissue; Table 1): +
Decreases Serum Cholesterol (vascular tissue; Table 1): +
Inhibition of Cholesterol Migration (vascular tissue; Table 1): 0
Platelet Activity (vascular tissue; Table 1): 0
Prostaglandin Synthesis (vascular tissue; Table 1): +
Speeding of Wound Healing (vascular tissue; Table 1): 0
immune-triggered endothelial damage / immune-induced lesions [6]: preventative effect on immune-induced lesions; also recorded: protective effect
severity of lesions (atherosclerotic lesions): reduce the severity of lesions
serum and liver cholesterol levels ([2]; supplementation in vitamin E deficient animals): decrease serum and liver cholesterol levels in a dose- and time-dependent manner
anti-aggregant activity (platelets): mild anti-aggregant effect

Compound: aspirin [Aspirin+ Vitamin−]
All Deaths No. ([7]; Men): 45
Ischemic Heart Disease No. ([7]; Men): 8
Myocardial Infarction No. ([7]; Men): 7
Other Heart Disease No. ([7]; Men): 6
Stroke No. ([7]; Men): 2
Total Cardiovascular Deaths No. ([7]; Men): 24
All Deaths RR ([7]; Men): 1.00
Ischemic Heart Disease RR ([7]; Men): 1.40
Myocardial Infarction RR ([7]; Men): 0.88
Other Heart Disease RR ([7]; Men): 1.52
Stroke RR ([7]; Men): 0.50
Total Cardiovascular Deaths RR ([7]; Men): 1.09
All Deaths No. ([7]; Women): 47
Ischemic Heart Disease No. ([7]; Women): 9
Myocardial Infarction No. ([7]; Women): 4
Other Heart Disease No. ([7]; Women): 6
Stroke No. ([7]; Women): 4
Total Cardiovascular Deaths No. ([7]; Women): 26
All Deaths RR ([7]; Women): 0.82
Ischemic Heart Disease RR ([7]; Women): 1.06
Myocardial Infarction RR ([7]; Women): 0.49
Other Heart Disease RR ([7]; Women): 0.81
Stroke RR ([7]; Women): 0.68
Total Cardiovascular Deaths RR ([7]; Women): 0.91

Compound: aspirin [Aspirin++ Vitamin−]
All Deaths No. ([7]; Men): 65
Ischemic Heart Disease No. ([7]; Men): 10
Myocardial Infarction No. ([7]; Men): 7
Other Heart Disease No. ([7]; Men): 7
Stroke No. ([7]; Men): 7
Total Cardiovascular Deaths No. ([7]; Men): 27
All Deaths RR ([7]; Men): 1.35
Ischemic Heart Disease RR ([7]; Men): 1.37
Myocardial Infarction RR ([7]; Men): 0.91
Other Heart Disease RR ([7]; Men): 1.57
Stroke RR ([7]; Men): 1.53
Total Cardiovascular Deaths RR ([7]; Men): 1.09
All Deaths No. ([7]; Women): 77
Ischemic Heart Disease No. ([7]; Women): 14
Myocardial Infarction No. ([7]; Women): 10
Other Heart Disease No. ([7]; Women): 12
Stroke No. ([7]; Women): 9
Total Cardiovascular Deaths No. ([7]; Women): 45
All Deaths RR ([7]; Women): 1.36
Ischemic Heart Disease RR ([7]; Women): 1.50
Myocardial Infarction RR ([7]; Women): 1.25
Other Heart Disease RR ([7]; Women): 1.41
Stroke RR ([7]; Women): 1.58
Total Cardiovascular Deaths RR ([7]; Women): 1.48
